Results as given in ChEMBL document CHEMBL3588748, “Original 2-(3-Alkoxy-1H-pyrazol-1-yl)azines Inhibitors of Human Dihydroorotate Dehydrogenase (DHODH)” (J Med Chem, 2015).
The source made the active and inactive calls. No rule for the calls is given here.

Columns and labels:
Plasmodium falciparum = test: Antiplasmodial activity against Plasmodium falciparum 3D7 assessed as inhibition of parasite growth at 8.66 ug/ml by SYBR Green I dye based assay; type: functional, organism-based

Description for Measles morbillivirus: Antiviral activity against measles virus rMV2/Luc infected in HEK-293T cells assessed as inhibition of virus growth incubated for 24 hrs by firefly luciferase reporter gene assay

## CCOc1nn(-c2ncc(C3CC3)cc2F)c(C)c1Cc1ccccc1
Plasmodium falciparum
  growth inhibition (GI): inactive
Measles morbillivirus
  pMIC50: 7

## Cc1c(Oc2c(F)cccc2F)c(OC(C)C)nn1-c1cnc(C(C)(C)C)nc1
Plasmodium falciparum
  growth inhibition (GI): inactive

## Cc1c(Oc2cccc(F)c2F)c(OC(C)C)nn1-c1ccc(C2CC2)cn1
Plasmodium falciparum
  growth inhibition (GI): inactive
Measles morbillivirus
  pMIC50: 7.4

## CCOc1nn(-c2cccc(F)n2)c(C)c1Cc1ccccc1
Plasmodium falciparum
  growth inhibition (GI): inactive
Measles morbillivirus
  pMIC50: <5

## Cc1c(Oc2c(F)cccc2F)c(OC(C)C)nn1-c1cnc(Br)cn1
Plasmodium falciparum
  growth inhibition (GI): inactive
Measles morbillivirus
  pMIC50: 5.5

## CCOc1nn(-c2ccc(C(F)(F)F)cn2)c(C)c1Cc1ccccc1
Plasmodium falciparum
  growth inhibition (GI): inactive
Measles morbillivirus
  pMIC50: 5.5

## CCOc1nn(-c2cc(C)ccn2)c(C)c1Cc1ccccc1
Plasmodium falciparum
  growth inhibition (GI): inactive
Measles morbillivirus
  pMIC50: 5.4

## CCOc1nn(-c2cccc(C(F)(F)F)n2)c(C)c1Cc1ccccc1
Plasmodium falciparum
  growth inhibition (GI): inactive
Measles morbillivirus
  pMIC50: <5

## Cc1c(Oc2c(F)cccc2F)c(OC(C)C)nn1-c1ccccn1
Plasmodium falciparum
  growth inhibition (GI): inactive
Measles morbillivirus
  pMIC50: <5

## CCOc1nn(-c2ccc(C3CC3)cn2)c(C)c1Oc1ccccc1C(F)(F)F
Plasmodium falciparum
  growth inhibition (GI): inactive
Measles morbillivirus
  pMIC50: 7.3

## CCCc1cnc(-n2nc(OC(C)C)c(Oc3c(F)cccc3F)c2C)c(F)c1
Plasmodium falciparum
  growth inhibition (GI): inactive
Measles morbillivirus
  pMIC50: 6.7

## COc1ccc(-n2nc(OC(C)C)c(Oc3c(F)cccc3F)c2C)cn1
Plasmodium falciparum
  growth inhibition (GI): inactive

## CCOc1nn(-c2ccc(C3CC3)nn2)c(C)c1Oc1cc(Cl)ccc1Cl
Plasmodium falciparum
  growth inhibition (GI): inactive
Measles morbillivirus
  pMIC50: 6.9

## CCc1cnc(-n2nc(OC(C)C)c(Oc3c(F)cccc3F)c2C)c(F)c1
Plasmodium falciparum
  growth inhibition (GI): inactive
Measles morbillivirus
  pMIC50: 7.1

## CCOc1nn(-c2ccc(C3CC3)cn2)c(C)c1Oc1cccc(C(F)(F)F)c1
Plasmodium falciparum
  growth inhibition (GI): inactive
Measles morbillivirus
  pMIC50: 7.1

## Cc1c(Oc2c(F)cccc2F)c(OC(C)C)nn1-c1ncc(C2CC2)cc1N(C)C
Plasmodium falciparum
  growth inhibition (GI): inactive
Measles morbillivirus
  pMIC50: 7.5

## Cc1c(Oc2c(F)cccc2F)c(OC(C)C)nn1-c1ccc(C(C)(F)F)cn1
Plasmodium falciparum
  growth inhibition (GI): inactive
Measles morbillivirus
  pMIC50: 7.1

## COc1cnc(-n2nc(OC(C)C)c(Oc3c(F)cccc3F)c2C)cn1
Plasmodium falciparum
  growth inhibition (GI): inactive
Measles morbillivirus
  pMIC50: 6.1

## Cc1c(Oc2ccc(F)cc2F)c(OC(C)C)nn1-c1ccc(C2CC2)nn1
Plasmodium falciparum
  growth inhibition (GI): inactive
Measles morbillivirus
  pMIC50: 6.4

## Cc1c(Oc2c(F)cccc2F)c(OC(C)C)nn1-c1cnc(C(F)(F)F)cn1
Plasmodium falciparum
  growth inhibition (GI): inactive
Measles morbillivirus
  pMIC50: 5.3

## COc1ccc(-n2nc(OC(C)C)c(Oc3c(F)cccc3F)c2C)nc1
Plasmodium falciparum
  growth inhibition (GI): inactive
Measles morbillivirus
  pMIC50: 7.3

## Cc1c(Oc2c(F)cccc2F)c(OC(C)C)nn1-c1ccc(Cl)nn1
Plasmodium falciparum
  growth inhibition (GI): inactive
Measles morbillivirus
  pMIC50: 6.8

## Cc1c(Oc2c(F)cccc2F)c(OC(C)C)nn1-c1ccc(C(C)(C)O)cn1
Plasmodium falciparum
  growth inhibition (GI): inactive
Measles morbillivirus
  pMIC50: 6.7

## CCc1ccc(-n2nc(OC(C)C)c(Oc3c(F)cccc3F)c2C)nc1
Plasmodium falciparum
  growth inhibition (GI): inactive
Measles morbillivirus
  pMIC50: 7.1

## CCOc1nn(-c2ccc(C3CC3)cn2)c(C)c1Oc1cc(Cl)ccc1Cl
Plasmodium falciparum
  growth inhibition (GI): inactive
Measles morbillivirus
  pMIC50: 7.1

## Cc1c(Oc2cc(F)ccc2F)c(OC(C)C)nn1-c1ccc(C2CC2)nn1
Plasmodium falciparum
  growth inhibition (GI): inactive
Measles morbillivirus
  pMIC50: 7

## CCc1ccc(-n2nc(OC(C)C)c(Oc3c(F)cccc3F)c2C)cn1
Plasmodium falciparum
  growth inhibition (GI): inactive

## CCOc1nn(-c2ccc(C3CC3)cn2)c(C)c1Oc1ccccc1Br
Plasmodium falciparum
  growth inhibition (GI): inactive
Measles morbillivirus
  pMIC50: 7.8

## COc1cc(C2CC2)cnc1-n1nc(OC(C)C)c(Oc2c(F)cccc2F)c1C
Plasmodium falciparum
  growth inhibition (GI): inactive
Measles morbillivirus
  pMIC50: 7.5

## CCOc1nn(-c2ccc(C3CC3)cn2)c(C)c1Oc1ccccc1Cl
Plasmodium falciparum
  growth inhibition (GI): inactive
Measles morbillivirus
  pMIC50: 7.9

## CCOc1nn(-c2ccc(C3CC3)nn2)c(C)c1Oc1cc(Cl)cc(Cl)c1
Plasmodium falciparum
  growth inhibition (GI): inactive
Measles morbillivirus
  pMIC50: 6.2

## CCn1cnc(-n2nc(OC(C)C)c(Oc3c(F)cccc3F)c2C)c1
Plasmodium falciparum
  growth inhibition (GI): inactive

## Cc1c(Oc2cccc(F)c2)c(OC(C)C)nn1-c1ccc(C2CC2)nn1
Plasmodium falciparum
  growth inhibition (GI): inactive
Measles morbillivirus
  pMIC50: 6.4

## Cc1c(Oc2ccc(F)cc2)c(OC(C)C)nn1-c1ccc(C2CC2)nn1
Plasmodium falciparum
  growth inhibition (GI): inactive
Measles morbillivirus
  pMIC50: 5.6

## CCOc1nn(-c2ccc(C3CC3)nn2)c(C)c1Oc1ccc(C(F)(F)F)cc1
Plasmodium falciparum
  growth inhibition (GI): inactive
Measles morbillivirus
  pMIC50: 5.2

## CCOc1nn(-c2ccc(C3CC3)cn2)c(C)c1Cc1ccccc1
Plasmodium falciparum
  growth inhibition (GI): inactive
Measles morbillivirus
  pMIC50: 7

## Cc1c(Oc2ccc(F)cc2F)c(OC(C)C)nn1-c1ccc(C2CC2)cn1
Plasmodium falciparum
  growth inhibition (GI): inactive
Measles morbillivirus
  pMIC50: 6.5

## CCOc1nn(-c2ccc(C3CC3)cn2)c(C)c1Oc1ccc(C(F)(F)F)cc1
Plasmodium falciparum
  growth inhibition (GI): inactive
Measles morbillivirus
  pMIC50: 5.3

## CCOc1ccc(-n2nc(OC(C)C)c(Oc3c(F)cccc3F)c2C)nn1
Plasmodium falciparum
  growth inhibition (GI): inactive

## Cc1c(Oc2c(F)cccc2F)c(OC(C)C)nn1-c1ncc(C2CC2)cc1OCc1ccccc1
Plasmodium falciparum
  growth inhibition (GI): inactive
Measles morbillivirus
  pMIC50: 7

## CCOc1nn(-c2ccc(C3CC3)nn2)c(C)c1Oc1ccccc1Br
Plasmodium falciparum
  growth inhibition (GI): inactive
Measles morbillivirus
  pMIC50: 7.2

## CCOc1nn(-c2ccc(C(=O)OC)cn2)c(C)c1Cc1ccccc1
Plasmodium falciparum
  growth inhibition (GI): inactive
Measles morbillivirus
  pMIC50: <5

## CCOc1nn(-c2ccc(Cl)cn2)c(C)c1Cc1ccccc1
Plasmodium falciparum
  growth inhibition (GI): inactive
Measles morbillivirus
  pMIC50: 5.5

## CCOc1nn(-c2ncc(Br)cc2F)c(C)c1Cc1ccccc1
Plasmodium falciparum
  growth inhibition (GI): inactive
Measles morbillivirus
  pMIC50: 5.9

## CCOc1nn(-c2ccc(C3CC3)cn2)c(C)c1Oc1cccc(Cl)c1Cl
Plasmodium falciparum
  growth inhibition (GI): inactive
Measles morbillivirus
  pMIC50: 7.9

## CCOc1nn(-c2ccc(C3CC3)cn2)c(C)c1Oc1ccccc1
Plasmodium falciparum
  growth inhibition (GI): inactive
Measles morbillivirus
  pMIC50: 7

## CCc1nnc(-n2nc(OC(C)C)c(Oc3c(F)cccc3F)c2C)nc1O
Plasmodium falciparum
  growth inhibition (GI): inactive
Measles morbillivirus
  pMIC50: 7.6

## Cc1c(-c2ccc(-c3ccccc3F)cc2)nc2ccc(F)cc2c1C(=O)O
Plasmodium falciparum
  growth inhibition (GI): inactive

## Cc1c(Oc2ccccc2F)c(OC(C)C)nn1-c1ccc(C2CC2)nn1
Plasmodium falciparum
  growth inhibition (GI): inactive
Measles morbillivirus
  pMIC50: 7.4

## Cc1cc(Br)cnc1-n1nc(OC(C)C)c(Oc2c(F)cccc2F)c1C
Plasmodium falciparum
  growth inhibition (GI): inactive
Measles morbillivirus
  pMIC50: 5.9

## CCOc1nn(-c2cccc(C)n2)c(C)c1Cc1ccccc1
Plasmodium falciparum
  growth inhibition (GI): inactive
Measles morbillivirus
  pMIC50: <5

## CCOc1nn(-c2ccc(C3CC3)nn2)c(C)c1Oc1ccccc1F
Plasmodium falciparum
  growth inhibition (GI): inactive
Measles morbillivirus
  pMIC50: 7.7

## Cc1c(Oc2c(F)cccc2F)c(OC(C)C)nn1-c1ccc(Br)cn1
Plasmodium falciparum
  growth inhibition (GI): inactive
Measles morbillivirus
  pMIC50: 6.3

## Cc1c(Oc2cccc(F)c2F)c(OC(C)C)nn1-c1ccc(C2CC2)nn1
Plasmodium falciparum
  growth inhibition (GI): inactive
Measles morbillivirus
  pMIC50: 7.4

## CCOc1nn(-c2ccc(C3CC3)cn2)c(C)c1Oc1cc(Cl)cc(Cl)c1
Plasmodium falciparum
  growth inhibition (GI): inactive
Measles morbillivirus
  pMIC50: 6.9

## CCOc1nn(-c2ccc(C(C)(C)O)cn2)c(C)c1Cc1ccccc1
Plasmodium falciparum
  growth inhibition (GI): inactive
Measles morbillivirus
  pMIC50: 5.3

## CCOc1nn(-c2ccc(C(C)=O)cn2)c(C)c1Cc1ccccc1
Plasmodium falciparum
  growth inhibition (GI): inactive
Measles morbillivirus
  pMIC50: <5

## Cc1c(Oc2c(F)cccc2F)c(OC(C)C)nn1-c1ncc(C2CC2)cc1C#N
Plasmodium falciparum
  growth inhibition (GI): inactive
Measles morbillivirus
  pMIC50: 8.1

## Cc1c(Oc2c(F)cccc2F)c(OC(C)C)nn1-c1ccc(C(F)(F)F)cn1
Plasmodium falciparum
  growth inhibition (GI): inactive
Measles morbillivirus
  pMIC50: 6.5

## CCOc1nn(-c2ccc(OC)cn2)c(C)c1Cc1ccccc1
Plasmodium falciparum
  growth inhibition (GI): inactive
Measles morbillivirus
  pMIC50: 5.5

## CCOc1nn(-c2ccc(Br)cn2)c(C)c1Cc1ccccc1
Plasmodium falciparum
  growth inhibition (GI): inactive
Measles morbillivirus
  pMIC50: 5.3

## Cc1ccc(-n2nc(OC(C)C)c(Oc3c(F)cccc3F)c2C)nc1
Plasmodium falciparum
  growth inhibition (GI): inactive
Measles morbillivirus
  pMIC50: 7.6

## CCOc1nn(-c2ncc(C3CC3)cc2C#N)c(C)c1Cc1ccccc1
Plasmodium falciparum
  growth inhibition (GI): inactive
Measles morbillivirus
  pMIC50: 6.6

## Cc1c(Oc2cccc(F)c2)c(OC(C)C)nn1-c1ccc(C2CC2)cn1
Plasmodium falciparum
  growth inhibition (GI): inactive
Measles morbillivirus
  pMIC50: 6.8

## Cc1c(Oc2c(F)cccc2F)c(OC(C)C)nn1-c1cnc(C2CC2)cn1
Plasmodium falciparum
  growth inhibition (GI): inactive

## Cc1ccc(-n2nc(OC(C)C)c(Oc3c(F)cccc3F)c2C)cn1
Plasmodium falciparum
  growth inhibition (GI): inactive
